Results on six compounds are retold here after US5955500A (G. D. Searle & Co., priority 1997, dated 1999).

SMILES strings stand for the structures. Where “and” joins values, the source holds several entries; their conditions need not be identical. Equal values may be shown once. Read-outs that look alike come from different tables or passages of the source.

The conditions of data set [1]: for Concentration in octanol / Concentration in water: pH 5, individual replicates.
The subject of data set [2] is canine heart. The following applies: for AH time / Heart rate / Mean arterial pressure: mean ± SE. On the procedure:
Fourteen adult mongrel dogs of either sex weighing between 19 and 25 kg were prepared for chronic electrophysiologic investigation by implanting epicardial electrodes and an indwelling aortic catheter. The dogs were fasted overnight and initially anesthetized with halothane on the day of surgery. After tracheal intubation, anesthesia was maintained with isoflurane and oxygen via positive pressure ventilation to keep end tidal carbon dioxide within the normal range. Muscular relaxation was induced by pancuronium. A right thoracotomy was performed in the fifth intercostal space. Three bipolar electrode pairs were sutured to the epicardial surface of the right atrial appendage and on the right and left ventricular apex (FIG. 5). A bipolar electrode was sutured to the right atrium close to the anatomical region of the sinoatrial node. A bipolar plunge electrode was placed into base of the interventricular septum to record a His bundle electrogram. An indwelling arterial catheter was placed into the aorta through the left femoral artery after surgical exposure of the artery at the inner side of the hind limb. All electrode leads were subcutaneously tunneled and exited through the skin between the scapulae. Incisions were closed in anatomic fashion and standard postoperative methods of analgesia were provided with 0.015 mg/kg of buprenorphine (Buprenex®, Reckitt & Colman, Hull, UK) and two times of 25 mg/kg cefazolin (Cefazolin Sodium®, SoloPak Laboratories, Elk Groove Village, Ill.) and dogs were allowed to recover from surgery for a period of seven days prior to testing.
Electrical signals from the bipolar electrodes, after suitable amplification in a custom built preamplifier (gain 1000), were filtered in a separate custom designed and built common mode rejection amplifier with a bandpass filter of 10-1000 Hz and individually adjusted for signal strength (maximal gain 400). […] Right atrial appendage (RA), right ventricular apex (RVA) and His bundle electrograms (HB) were recorded, simultaneously. […] All measurements of conduction times were made during spontaneous sinus rhythm.
The His bundle electrode (HBE) was advanced into the base of the interatrial septum from the aortic root. The electrode was advanced from a point located just behind and to the right of the origin of the right coronary artery. The HBE was slowly advanced parallel to the aorta, inferiorly and slightly anteriorly until a well discernible His potential was recorded. AV conduction (AH) interval was measured as the time difference (ms) between the onset of the initial rapid deflection in the RA electrogram to the beginning of the His potential in the HB electrogram. His-ventricular (HV) conduction time interval (ms) was measured from the beginning of the His potential (HBE) to the initial deflection of the QRS complex wave (earliest left ventricular activation) in a simultaneously recorded surface ECG lead II.
As an indicator of automaticity, sinus node recovery time (SNRT) was determined by pacing the right atrial appendage (30 s at 180 and 200 beats/min at 2 msec pulse duration; 2×threshold). SNRT was measured from the last pacing spike to the first spontaneous atrial activity on the His bundle electrogram after cessation of pacing (ms).
A timed extrastimulus (S2) was delivered 300 ms after the preceding pacing spike (S1).
Verapamil was dissolved in 5% dextrose and water ([…]).
During the postoperative period, each dog was trained to stand quietly in a sling during electrophysiological monitoring. Prior to measurement, electrical signals in each dog were monitored to verify the absence of spontaneous arrhythmias other-than normal respiratory sinus arrhythmias.
From the resting dog, 5 channel records were obtained at a sampling rate of 1 kHz per channel for 7 min to determine the following conduction intervals: AH, HV, QRS, QT and HR. A corrected QT interval [QTc=QT interval in ms/ (R-R interval in s)^1/2 ] was also calculated.

The subject of data set [3] is isolated working rat heart. The following applies: S 100 ng/ml plus R 50-950 ng/ml cumulative.
The test system of data set [4] is isolated working rat heart.
Where [5] appears, read: S 100 ng/ml, R 950 ng/ml, R/S ratio 9.5.

As to `COc1ccc(CCN(C)CCCC(C#N)(c2ccc(OC)c(OC)c2)C(C)C)cc1OC` (racemic) [20/80S], in data set [1] (pH 5), the “Eutectic compound identification (phase diagram based on Po/w)” value is given as “eutectic compound”. Further, in data set [1] (listed as 80), the Concentration in octanol was 4.16 µg/mL and 4.49 µg/mL and 3.81 µg/mL. The Concentration in water in data set [1] (listed as 80) was 6.95 µg/mL and 6.93 µg/mL and 6.92 µg/mL. Moreover, the AH time in data set [2] (0.1 mg/kg i.v., 0 min) turned out to be 88 ± 5 ms; in data set [2] (0.1 mg/kg i.v., 1 min) it was 100 ± 5 ms; in data set [2] (0.1 mg/kg i.v., 2 min), 106 ± 5 ms; in data set [2] (0.1 mg/kg i.v., 3 min), 107 ± 5 ms; in data set [2] (0.1 mg/kg i.v., 4 min) it was 111 ± 6 ms; in data set [2] (0.1 mg/kg i.v., 5 min), 112 ± 5 ms. Moreover, the AH time in data set [2] (0.2 mg/kg i.v., 0 min) came to 110 ± 10 ms; in data set [2] (0.2 mg/kg i.v., 1 min), 126 ± 11 ms; in data set [2] (0.2 mg/kg i.v., 2 min), 133 ± 10 ms; in data set [2] (0.2 mg/kg i.v., 3 min), 140 ± 12 ms; in data set [2] (0.2 mg/kg i.v., 4 min), 127 ± 14 ms; in data set [2] (0.2 mg/kg i.v., 5 min) it was 130 ± 11 ms. Also, the Heart rate in data set [2] (0.1 mg/kg i.v., 0 min) is recorded as 155 ± 13 beats per min; in data set [2] (0.1 mg/kg i.v., 1 min), 143 ± 11 beats per min; in data set [2] (0.1 mg/kg i.v., 2 min) it was 127 ± 10 beats per min; in data set [2] (0.1 mg/kg i.v., 3 min), 124 ± 9 beats per min; in data set [2] (0.1 mg/kg i.v., 4 min) it was 113 ± 11 beats per min; in data set [2] (0.1 mg/kg i.v., 5 min) it was 111 ± 8 beats per min. Besides, the Heart rate in data set [2] (0.2 mg/kg i.v., 0 min) was 168 ± 10 beats per min; in data set [2] (0.2 mg/kg i.v., 1 min), 166 ± 9 beats per min; in data set [2] (0.2 mg/kg i.v., 2 min), 154 ± 8 beats per min; in data set [2] (0.2 mg/kg i.v., 3 min) it was 141 ± 11 beats per min; in data set [2] (0.2 mg/kg i.v., 4 min), 155 ± 16 beats per min; in data set [2] (0.2 mg/kg i.v., 5 min) it was 146 ± 4 beats per min. Besides, the Mean arterial pressure in data set [2] (0.1 mg/kg i.v., 0 min) amounted to 92 ± 4 mmHg; in data set [2] (0.1 mg/kg i.v., 1 min) it was 97 ± 3 mmHg; in data set [2] (0.1 mg/kg i.v., 2 min), 100 ± 3 mmHg; in data set [2] (0.1 mg/kg i.v., 3 min), 100 ± 4 mmHg; in data set [2] (0.1 mg/kg i.v., 4 min), 99 ± 4 mmHg; in data set [2] (0.1 mg/kg i.v., 5 min), 101 ± 4 mmHg. Besides, the Mean arterial pressure in data set [2] (0.2 mg/kg i.v., 0 min) was determined as 84 ± 3 mmHg; in data set [2] (0.2 mg/kg i.v., 1 min) it was 87 ± 4 mmHg; in data set [2] (0.2 mg/kg i.v., 2 min), 93 ± 5 mmHg; in data set [2] (0.2 mg/kg i.v., 3 min) it was 94 ± 5 mmHg; in data set [2] (0.2 mg/kg i.v., 4 min), 97 ± 5 mmHg; in data set [2] (0.2 mg/kg i.v., 5 min) it was 98 ± 3 mmHg. Also, the “Occurrence of AV conduction block” value in data set [2] (0.2 mg/kg i.v., listed as 20R/80S-verapamil) is on record as 5 animals. The “Occurrence of second and third degree AV conduction block” value in data set [2] (0.4 mg/kg i.v., listed as 20R/80S-verapamil) is reported as “all”. The “Recovery of the decrease in MAP” value in data set [2] (compared with any other groups) is listed as “slower”. For the same compound, the “Peak effect on HR, in words” value in data set [2] (dog, in vivo) is “drastic increase in HR”. In addition, in data set [2] (dog, in vivo), the “QTc interval compared with 100R-verapamil, in words” value was “significantly increased compared with 100R-verapamil”. Besides, in data set [2] (increase in HR against drop in MAP), the “Interaction between MAP and HR (multiple linear regression), in words” value is given as “greatest rate of increase in HR as opposed to a drop in MAP”.
Turning to `COc1ccc(CCN(C)CCCC(C#N)(c2ccc(OC)c(OC)c2)C(C)C)cc1OC` (racemic) [R/S (0.5)], in data set [3], the “Cardiac output (CO), significance vs predrug” value is on record as “n.s” and the “Heart rate (HR), significance vs predrug” value was “n.s”.
For the compound `COc1ccc(CCN(C)CCCC(C#N)(c2ccc(OC)c(OC)c2)C(C)C)cc1OC` (racemic) [R/S (2.0)], in data set [3], the “Cardiac output (CO), significance vs predrug” value is on record as “n.s”; the “Heart rate (HR), significance vs predrug” value is reported as “n.s”; the “Peak systolic pressure (PSP), significance vs predrug” value is given as “n.s”.
As for `COc1ccc(CCN(C)CCCC(C#N)(c2ccc(OC)c(OC)c2)C(C)C)cc1OC` (racemic) [R/S (4.5)], in data set [3], the “Heart rate (HR), significance vs predrug” value is “n.s” and the “Peak systolic pressure (PSP), significance vs predrug” value was “n.s”.
For `COc1ccc(CCN(C)CCCC(C#N)(c2ccc(OC)c(OC)c2)C(C)C)cc1OC` (racemic) [R/S (9.5)], in data set [4] (R/S ratio 9.5), the “Effect of mixture on heart rate, in words” value is “additive”. In addition, the “Peak systolic pressure (PSP), significance vs predrug” value in data set [4] (setting [5]) is given as “n.s”.
As for `COc1ccc(CCN(C)CCC[C@@](C#N)(c2ccc(OC)c(OC)c2)C(C)C)cc1OC` [S-verapamil, reference compound], the “Reduction of peak systolic pressure and cardiac output, in words” value in data set [4] (S 100 ng/ml vs R 950 ng/ml) is on record as “more effective at reducing peak systolic pressure (FIG. 2b) as well as cardiac output”. In addition, in data set [4] (S 100 ng/ml, R 950 ng/ml), the “Nature of cardiac effect (inotropic / chronotropic)” value is “primarily an inotropic drug”. Moreover, in data set [4] (setting [5]), the “Heart rate (HR), significance vs predrug” value was “n.s”. In data set [1] (listed as 100), the Concentration in octanol is 5.15 µg/mL and 5.29 µg/mL and 5.53 µg/mL; the Concentration in water is 4.08 µg/mL and 4.88 µg/mL and 6.22 µg/mL.
